Laboratory results published in patent publication US8815811B2, “Peptides and methods for their preparation and use” (Eli Lilly and Company, priority 2010, dated 2014).
Where no end group is shown, it is not given here. [ ]: non-standard residue; d: D form. 1Nal = N[C@@H](Cc1cccc2ccccc12)C(=O)O; Aib = CC(C)(N)C(=O)O

Tests used:
[1] = target: T1, hGlucR (Homo sapiens, UniProt P47871); assay: Glucagon receptor (hGlucR) binding assay (SPA, I-125 glucagon); settings: hGlucR 293HEK membranes
T1 construct: expressed in transfected cells; host or cells: 293HEK, Hygromycin-selected, phD expression plasmid
Procedure: The hGlucR cDNA is subcloned into the expression plasmid phD (Trans-activated expression of fully gamma-carboxylated recombinant human protein C, an antithrombotic factor. Grinnell, B. W., et. al., Bio/Technology 5: 1189-1192 (1987)). This plasmid DNA is transfected into 293HEK cells and selected with 200 μg/mL Hygromycin.
Crude plasma membranes are prepared using cells from suspension culture. The cells are lysed on ice in hypotonic buffer containing 25 mM Tris HCl, pH 7.5, 1 mM MgCl2, DNAse1, 20 μ/mL, and Roche Complete™ Inhibitors without EDTA. The cell suspension is homogenized with a glass dounce homogenizer using a Teflon® pestle for 25 strokes. The homogenate is centrifuged at 4° C. at 1800×g for 15 minutes. The supernatant is collected and the pellet is resuspended in hypotonic buffer and rehomogenized. The mixture is centrifuged at 1800×g for 15 minutes. The second supernatant is combined with the first supernatant. […]
The binding buffer contains 25 mM 4-(2-hydroxyethyl)-1-piperazineethanesulfonic acid (HEPES), pH 7.4, 2.5 mM CaCl2, 1 mM MgCl2, 0.1% fatty acid free BSA, 0.003% Tween20, and Roche Complete™ Inhibitors without EDTA. […] Plates are read with a PerkinElmer Life and Analytical Sciences Trilux MicroBeta® scintillation counter after 12 hours of settling time at room temperature.
Results are calculated as a percent of specific I-125-glucagon binding in the presence of compound. […]

[2] = system: diet-induced obese (DIO) mice; assay: Effects on food intake, body weight and body composition in DIO mice; type: in vivo; settings: for Fat mass loss (g fat weight change for 14 days) / Total food intake (g total for 14 days) / Overall weight loss (g weight change for 14 days): DIO mice
Procedure: Effects on Food Intake, Body Weight and Body Composition in Diet-Induced Obese (DIO) Mice
Three to four months old male diet-induced obese (DIO) mice are used. Animals are individually housed in a temperature-controlled (24° C.) facility with a 12 hour light/dark cycle (lights on 22:00), and have free access to food and water. After 2 weeks acclimation to the facility, mice are randomized to treatment groups (n=8-10/group) so that each group has similar mean body weight and fat mass. Before the experiment, mice are subcutaneously (sc) injected with vehicle solution and weighed for 7 days to acclimate them to the procedures.
Vehicle or peptide analog (dose range 10-100 nmol/Kg) dissolved in vehicle is administered by sc injection to ad libitum fed DIO mice 30-90 minutes prior to the onset of the dark cycle […] for 2 to 4 weeks. Body weight and the weight of food plus the hopper are measured at the same time. Food consumed in the last 24 hours is calculated by subtracting current weight of food plus the hopper from that of the previous day. Absolute changes in body weight are calculated by subtracting the body weight of the animal prior to the first injection. On days −1 and 14, total fat mass is measured by nuclear magnetic resonance (NMR) using an Echo Medical System (Houston, Tex.) instrument. Fat free mass is calculated by subtracting fat mass from total body weight.

[3] = system: DIO mice; assay: Oral glucose tolerance test after 2-week treatment in DIO mice; type: in vivo
Procedure: Fifty-six hours after the last injection of compound in the DIO study above the animals were subjected to an oral glucose tolerance test. In short, mice were fasted for 16 hours prior to the start of the glucose tolerance test. At time 0, animals are given 2 g/kg dextrose by oral gavage. Blood is collected by tail bleeding taken 0, 15, 30, 60 and 120 minutes after glucose challenge. Glucose concentration is measured by glucometer.

[4] = system: Normal male Wistar rats; assay: Intravenous glucose tolerance test in normal rats; type: in vivo; settings: IVGTT; for insulin AUC: 0 to 30 min
Procedure: Effects on Blood Glucose Excursion During an Intravenous Glucose Tolerance Test in Normal Rats
Normal male Wistar rats (225-250 g) are used in the study. Animals are randomized into groups based on fed body weight and blood glucose. Animals are injected with vehicle or peptide analog (dose 3-400 μg peptide content/kg) 16 hours prior to the start of the test. Food is removed at the time of injection. Prior to the assay the animals are put under anesthesia, Phenobarbital 65 mg/kg i.p., and two catheters are inserted, one in the jugular vein and the other in the carotid artery. At time 0, animals are given 0.5 g glucose/kg through the venous catheter. Blood is collected from the carotid artery at time 0 (pre glucose), 2, 4, 6, 10, 20 and 30 minutes after glucose challenge. Glucose concentration is measured by glucometer. Insulin is measured by Mesoscale®. Efficacy is measured as the increase in total area under the insulin curve (=integrated plasma insulin values from t+0 to 30 min) as well as the area under the glucose curve which is a measure of the glucose excursion following the intravenous glucose challenge.

[5] = system: ovariectomized (OvX) Sprague Dawley rats; assay: Skeletal effects in ovariectomized (OvX) Sprague Dawley rats; type: in vivo
Procedure: Example 4 was evaluated in 6 months old, ovariectomized (OvX; see Endocrinology 144: 2008-2015), Sprague Dawley rats. Doses of 0, 2.9, 9.7, or 29 nmol/kg were given to the rats as daily subcutaneous injections starting 9 days post surgery. […] It should be noted that loss in body weight (8% in this study) can directly affect bone mass. Bone strength is load dependent and losing weight results in a lower load on bones that carry weight and as a consequence less impact is observed on skeletal parameters of bones that carry weight, i.e. the femur cortical bone. Statistical significances were evaluated by a one-way ANOVA followed by a Dunnett's test.

[6] = OvX rats, 2.9 nmol/kg daily sc, 35 days
[7] = OvX rats, 9.7 nmol/kg daily sc, 35 days
[8] = OvX rats, 29 nmol/kg daily sc, 35 days

T1 sequence (P47871 26-477): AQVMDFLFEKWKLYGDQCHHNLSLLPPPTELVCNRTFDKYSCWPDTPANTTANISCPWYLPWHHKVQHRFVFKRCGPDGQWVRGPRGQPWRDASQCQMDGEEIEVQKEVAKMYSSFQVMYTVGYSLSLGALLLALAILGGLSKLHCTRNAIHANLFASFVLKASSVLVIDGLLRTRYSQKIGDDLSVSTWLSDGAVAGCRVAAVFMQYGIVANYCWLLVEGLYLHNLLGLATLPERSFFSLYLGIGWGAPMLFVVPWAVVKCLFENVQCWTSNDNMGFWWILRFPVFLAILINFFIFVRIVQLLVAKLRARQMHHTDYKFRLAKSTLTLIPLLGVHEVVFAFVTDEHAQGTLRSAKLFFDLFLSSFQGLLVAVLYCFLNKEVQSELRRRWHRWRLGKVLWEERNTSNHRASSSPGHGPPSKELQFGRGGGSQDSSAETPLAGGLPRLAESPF

For “Aib^2, Aib^13, Nal^22, Aib^29, Cys^43(PEG20K), Cys^44 (PEG20K)-GIP (Y[Aib]EGTFTSDYSI[Aib]LDKIAQRA[1Nal]VQWLIA[Aib]KGKKQEWKHQITQC(PEG 20 kDa)C(PEG 20 kDa)-NH2) [Example 4]”, the Ki [1] was > 7.49 µM, the “cumulative food intake and body weight compared to vehicle-treated mice” value ([2]; 14-day DIO mouse studies, summary of Tables 6a and 6b) was “decreased” and the “Fat mass loss (g fat weight change for 14 days)” value ([2]; Table 6a, 10 nmol/Kg) was -3.6 ± 1.1 g. For the same substance, the “Total food intake (g total for 14 days)” value ([2]; Table 6a, 10 nmol/Kg) was 28.4 ± 1.8 g, the “Overall weight loss (g weight change for 14 days)” value ([2]; Table 6a, 10 nmol/Kg sc every 3 days) was -4.5 ± 0.3 g and the “Fat mass loss (g fat weight change for 14 days)” value ([2]; Table 6a, 30 nmol/Kg) was -4.7 ± 0.4 g. The “Total food intake (g total for 14 days)” value ([2]; Table 6a, 30 nmol/Kg) was 25.5 ± 2.6 g, the “Overall weight loss (g weight change for 14 days)” value ([2]; Table 6a, 30 nmol/Kg sc every 3 days) was -6.0 ± 0.4 g and the “Fat mass loss (g fat weight change for 14 days)” value ([2]; Table 6b, 10 nmol/Kg) was -3.6 ± 0.3 g. The “Overall weight loss (g weight change for 14 days)” value ([2]; Table 6b, 10 nmol/Kg) was -4.9 ± 0.4 g, the “Total food intake (g total for 14 days)” value ([2]; Table 6b, 10 nmol/Kg) was 26.9 ± 1.5 g and the “glucose excursion following an oral glucose load” value ([3]; DIO mice, summary of Tables 7a and 7b) was “significantly reduced”. For the same substance, the “Glucose AUC, MEAN” value ([3]; Table 7a, OGTT 2 g/kg dextrose, 56 h after last injection, 10 nmol/Kg) was 11725 mg·min/dL, the “Glucose AUC, MEAN” value ([3]; Table 7a, OGTT, 30 nmol/Kg) was 10907 mg·min/dL and the “Glucose AUC, MEAN” value ([3]; Table 7b, OGTT, 10 nmol/Kg) was 13719 mg·min/dL. For the same substance, the “insulin AUC and glucose AUC compared to vehicle-treated rats” value [4] was “increased insulin AUC and decreased glucose AUC”, the “glucose AUC” value ([4]; 50 μg/Kg) was 7730 mg·min/dL and the “insulin AUC” value ([4]; 50 μg/Kg 16 hours before test) was 150 ng·min/mL. The “glucose AUC” value ([4]; 200 μg/Kg) was 7420 mg·min/dL, the “insulin AUC” value ([4]; 200 μg/Kg 16 hours before test) was 161 ng·min/mL and the “Bone mineral density (BMD) of lumbar vertebrae, MEAN” value (“Bone mineral density (BMD)” for short) [5, 6] was 557 mg/mL. For the same substance, the “Changes in bone mineral content (BMC) of lumbar vertebrae, Bone mineral density (mg), MEAN” value (shortened to “Changes in bone mineral content (BMC)”) [5, 6] was 9.75 mg, the “Bone mineral density (BMD)” value [5, 7] was 558 mg/mL and the “Changes in bone mineral content (BMC)” value [5, 7] was 9.98 mg. For the same substance, the “Bone mineral density (BMD)” value [5, 8] was 588 mg/mL, the “Changes in bone mineral content (BMC)” value [5, 8] was 10.49 mg and the “reduction of food consumption and body weight” value ([5]; OvX rats, 2.9-29 nmol/kg daily, 35 days, dose responsive) was “up to 8%”. The “OvX induced loss in bone mineral content and bone mineral density in lumbar vertebrae” value ([5]; OvX rats, 35 days) was “dose-dependently prevented”, the “adverse effect on bone mineral density or bone mineral content in the femur and lumbar vertebra” value ([5]; OvX rats, 35 days) was “did not adversely affect” and the “effect in mid femur cortical bone (BMC, BMD)” value ([5]; OvX rats, 35 days) was “no effect”. The fat mass ([5]; OvX rats, 35 days) was “decreased fat mass”, the lean mass ([5]; OvX rats, 35 days) was “no change” and the “non-fasted serum glucose and triglycerides” value ([5]; OvX rats, 35 days) was “decreased”. For the same substance, the “BMC and BMD in OvX rats” value ([5]; summary of Tables 8 and 9) was “improves”.
